The values that follow come from ChEMBL document CHEMBL1157545, “Synthesis and cancer cell cytotoxicity of substituted xanthenes” (Bioorg Med Chem, 2010).

Test [1] relates to MCF7. Description: Cytotoxicity against human MCF7 cells after 48 hrs. The format is functional, cell-based. To be noted: MCF7, 48 h.
The subject of test [2] is DU-145. Description: Cytotoxicity against human DU145 cells after 48 hrs. The format is functional, cell-based. To be noted: DU-145, 48 h.
Test [3] deals with HeLa. Description: Cytotoxicity against human HeLa cells after 48 hrs. It counts as functional, cell-based.
Test [4] deals with Nucleic Acid. Put plainly: Binding affinity to DNA assessed as DNA intercalation at 50 uM. The format is nucleic-acid assay.
Test [5] deals with Nucleic Acid. Put plainly: Binding affinity to DNA assessed as DNA intercalation at 250 uM. The format is nucleic-acid assay.
Test [6] has as its target DNA topoisomerase 2-alpha (Homo sapiens) (UniProt P11388). Put plainly: Inhibition of human DNA topoisomerase 2 at 50 uM by DNA relaxation assay.
Test [7] has the same target. Put plainly: Inhibition of human DNA topoisomerase 2 at 250 uM by DNA relaxation assay.

Active and inactive are the calls of the source. The rule behind the calls is not given here.

What is called IC50 is the concentration needed to halve the response being measured. A higher IC50 goes with weaker potency in that assay.

DNA topoisomerase 2-alpha (Homo sapiens), sequence (P11388 whole entry): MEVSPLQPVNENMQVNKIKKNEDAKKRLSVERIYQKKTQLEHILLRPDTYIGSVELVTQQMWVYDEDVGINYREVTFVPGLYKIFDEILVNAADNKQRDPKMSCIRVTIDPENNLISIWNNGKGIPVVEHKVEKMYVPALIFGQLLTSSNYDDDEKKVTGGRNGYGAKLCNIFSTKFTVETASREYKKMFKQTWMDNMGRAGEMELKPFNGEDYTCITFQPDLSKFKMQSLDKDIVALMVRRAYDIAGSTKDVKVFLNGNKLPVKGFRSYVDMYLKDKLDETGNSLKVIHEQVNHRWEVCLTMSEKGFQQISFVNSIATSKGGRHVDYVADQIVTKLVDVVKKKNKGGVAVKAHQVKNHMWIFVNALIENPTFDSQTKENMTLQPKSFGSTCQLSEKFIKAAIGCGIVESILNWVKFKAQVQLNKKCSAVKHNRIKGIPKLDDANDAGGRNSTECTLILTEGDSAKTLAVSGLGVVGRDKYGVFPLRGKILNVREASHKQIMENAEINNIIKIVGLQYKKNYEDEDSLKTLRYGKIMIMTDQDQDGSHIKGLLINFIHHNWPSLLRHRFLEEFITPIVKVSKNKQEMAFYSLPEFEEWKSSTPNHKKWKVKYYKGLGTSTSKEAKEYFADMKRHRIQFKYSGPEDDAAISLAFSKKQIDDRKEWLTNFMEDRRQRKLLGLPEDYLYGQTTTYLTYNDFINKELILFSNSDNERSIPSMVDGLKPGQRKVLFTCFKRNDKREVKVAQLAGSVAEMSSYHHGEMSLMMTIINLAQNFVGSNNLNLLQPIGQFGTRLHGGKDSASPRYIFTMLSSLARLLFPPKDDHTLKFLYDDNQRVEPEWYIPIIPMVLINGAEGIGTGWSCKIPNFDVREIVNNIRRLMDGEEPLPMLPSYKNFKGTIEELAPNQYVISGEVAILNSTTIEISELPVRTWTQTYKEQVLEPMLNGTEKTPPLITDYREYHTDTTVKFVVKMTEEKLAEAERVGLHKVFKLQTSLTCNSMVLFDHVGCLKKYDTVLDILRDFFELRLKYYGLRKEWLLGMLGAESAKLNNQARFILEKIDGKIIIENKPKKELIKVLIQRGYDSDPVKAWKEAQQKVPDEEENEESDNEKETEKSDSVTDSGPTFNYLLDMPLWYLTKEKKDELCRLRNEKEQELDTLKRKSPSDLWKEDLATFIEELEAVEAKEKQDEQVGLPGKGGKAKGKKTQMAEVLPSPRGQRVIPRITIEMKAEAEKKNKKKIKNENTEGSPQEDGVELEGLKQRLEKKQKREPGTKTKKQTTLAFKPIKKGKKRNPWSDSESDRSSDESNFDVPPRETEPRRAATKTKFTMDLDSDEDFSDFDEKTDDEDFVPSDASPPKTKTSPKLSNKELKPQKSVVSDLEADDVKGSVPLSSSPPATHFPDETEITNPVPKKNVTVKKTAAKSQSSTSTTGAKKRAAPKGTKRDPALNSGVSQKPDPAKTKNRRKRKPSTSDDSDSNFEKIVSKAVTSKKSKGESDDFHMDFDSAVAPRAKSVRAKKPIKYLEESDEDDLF

Regarding `O=C(c1ccc2c(c1)Oc1ccccc1C2(O)c1ccccc1)N1CCOCC1` (configuration not stated), the IC50 in test [1] came to 134 µM; in test [2], 125 µM; in test [3], 120 µM. Further, the result in test [4] and in test [5] was inactive.

`C=CC1(O)c2ccc(C(=O)N3CCN(C)CC3)cc2Oc2ccc(Cl)cc21` (configuration not stated): the IC50 in test [1] is more than 500 µM; in test [2], 208 µM; in test [3] it was 285 µM. The result in test [4] and in test [5] was inactive.

In the case of `COc1cccc(C2(O)c3ccccc3Oc3cc(C(=O)N4CCN(C)CC4)ccc32)c1` (configuration not stated), the IC50 is 125 µM in test [1], 139 µM in test [2] and 111 µM in test [3]. For the same molecule, the result in test [4] and in test [5] was inactive.

Turning to `COc1cccc(C2(O)c3ccccc3Oc3cc(C(=O)N4CCOCC4)ccc32)c1` (configuration not stated), the IC50 in test [1] came to 151 µM; in test [2] it was 163 µM; in test [3], 153 µM. In addition, the outcome in test [4] and in test [5] was inactive.

For the molecule `OC1(c2ccccc2)c2ccccc2Oc2ccccc21`, the IC50 in test [1], in test [2] and in test [3] was more than 500 µM in each case. The result in test [4] and in test [5] was inactive.

`CN1CCN(C(=O)c2ccc3c(c2)Oc2ccccc2C3(O)c2ccccc2)CC1` (configuration not stated): the figures for the IC50 in test [1], in test [2] and in test [3] were 169 µM, more than 300 µM and 170 µM, respectively. Moreover, the outcome in test [4] and in test [5] was inactive.

With `CN1CCN(C(=O)c2ccc3c(c2)Oc2ccc(F)cc2C3(C)O)CC1` (configuration not stated), the IC50 was 208 µM in test [1], more than 300 µM in test [2] and more than 300 µM in test [3]. The outcome in test [4] and in test [5] was inactive.

`CCC1(O)c2ccc(C(=O)N3CCN(C)CC3)cc2Oc2ccc(F)cc21` (configuration not stated): the IC50 in test [1] amounted to 138 µM; in test [2] it was 139 µM; in test [3], 127 µM. Also, the result in test [4] and in test [5] was inactive.

As to `C=CC1(O)c2ccccc2Oc2cc(C(=O)N3CCN(C)CC3)ccc21` (configuration not stated), the figures for the IC50 in test [1], in test [2] and in test [3] were 74 µM, 63 µM and 74 µM, respectively. Further, the result in test [4] and in test [5] was inactive.

With `CN(C)C(=O)c1ccc2c(c1)Oc1ccccc1C2(O)c1ccccc1` (configuration not stated), the inhibition entry in test [6] and in test [7] was “inactive” in each case. The 50% inhibitory concentration (IC50) in test [1] stood at 62 µM; in test [2], 59 µM; in test [3], 67 µM. The result in test [4] and in test [5] was inactive.

As for `COc1cccc(C2(O)c3ccc(C(=O)N4CCN(C)CC4)cc3Oc3ccc(Cl)cc32)c1` (configuration not stated), the IC50 in test [1] turned out to be 72 µM; in test [2], 92 µM; in test [3], 94 µM. Besides, the outcome in test [4] and in test [5] was inactive.

Take `CN1CCN(C(=O)c2ccc3c(c2)Oc2ccccc2C3(C)O)CC1` (configuration not stated): the IC50 in test [1] was 115 µM; in test [2] it was 119 µM; in test [3], 121 µM. Also, the result in test [4] and in test [5] was inactive.

Regarding `O=c1c2ccccc2oc2ccccc12` [XANTHONE], the IC50 in test [1], in test [2] and in test [3] was more than 500 µM throughout. In addition, the result in test [4] and in test [5] was inactive.

Consider `CCC1(O)c2ccccc2Oc2cc(C(=O)N3CCN(C)CC3)ccc21` (configuration not stated), for which the values for the IC50 in test [1], in test [2] and in test [3] were 218 µM, 195 µM and 213 µM, respectively. Also, the outcome in test [4] and in test [5] was inactive.

Regarding `CCC1(O)c2ccc(C(=O)N3CCN(C)CC3)cc2Oc2ccc(Cl)cc21` (configuration not stated), the IC50 in test [1] was 180 µM; in test [2], 145 µM; in test [3], 153 µM. Also, the outcome in test [4] and in test [5] was inactive.

On to `COc1cccc(C2(O)c3ccc(C(=O)N4CCN(C)CC4)cc3Oc3ccc(F)cc32)c1` (configuration not stated), for which the inhibition entry in test [6] and in test [7] was “inactive” each time. Also, the IC50 in test [1] was 46 µM; in test [2] it was 55 µM; in test [3] it was 85 µM. Also, the result in test [4] and in test [5] was inactive.

Take `CN1CCN(C(=O)c2ccc3c(c2)Oc2ccc(F)cc2C3(O)c2ccccc2)CC1` (configuration not stated): the inhibition entry in test [6] and in test [7] was “inactive” in each case. The IC50 in test [1] amounted to 62 µM; in test [2], 84 µM; in test [3] it was 109 µM. Also, the result in test [4] and in test [5] was inactive.

Turning to `CN1CCN(C(=O)c2ccc3c(c2)Oc2ccc(Cl)cc2C3(C)O)CC1` (configuration not stated), the IC50 in test [1] turned out to be 160 µM; in test [2], 241 µM; in test [3] it was 264 µM. Also, the result in test [4] and in test [5] was inactive.

In the case of `CN1CCN(C(=O)c2ccc3c(c2)Oc2ccc(Cl)cc2C3(O)c2ccccc2)CC1` (configuration not stated), the IC50 worked out at 95 µM in test [1], 117 µM in test [2] and 158 µM in test [3]. Moreover, the result in test [4] and in test [5] was inactive.

In the case of `C=CC1(O)c2ccc(C(=O)N3CCN(C)CC3)cc2Oc2ccc(F)cc21` (configuration not stated), the inhibition entry in test [6] and in test [7] was “inactive” throughout. Further, the IC50 in test [1] was 254 µM; in test [2], more than 300 µM; in test [3], 230 µM. Further, the result in test [4] and in test [5] was inactive.

For the molecule `COc1cccc(C2(O)c3ccccc3Oc3cc(C(=O)N(C)C)ccc32)c1` (configuration not stated), the inhibition entry in test [6] and in test [7] was “inactive” in each case. Besides, the IC50 in test [1] stood at 50 µM; in test [2], 36 µM; in test [3], 44 µM. Besides, the outcome in test [4] and in test [5] was inactive.

On to `COc1cccc(C2(O)c3ccccc3Oc3ccccc32)c1`, for which the inhibition result in test [6] and in test [7] was “inactive” throughout. In addition, the figures for the IC50 in test [1], in test [2] and in test [3] were 82 µM, 59 µM and 85 µM, respectively. Also, the result in test [4] and in test [5] was inactive.
